The source made the active and inactive calls. The calls are words filed in the database; no cut-off is given here.
Legend:
[1] = target: T1, Amine oxidase [flavin-containing] B (Homo sapiens, UniProt P27338); test: Inhibition of human recombinant MAO-B expressed in baculovirus-infected BTI cells using kynuramine as substrate incubated for 30 mins by fluorescence based analysis
T1 sequence (P27338 whole entry): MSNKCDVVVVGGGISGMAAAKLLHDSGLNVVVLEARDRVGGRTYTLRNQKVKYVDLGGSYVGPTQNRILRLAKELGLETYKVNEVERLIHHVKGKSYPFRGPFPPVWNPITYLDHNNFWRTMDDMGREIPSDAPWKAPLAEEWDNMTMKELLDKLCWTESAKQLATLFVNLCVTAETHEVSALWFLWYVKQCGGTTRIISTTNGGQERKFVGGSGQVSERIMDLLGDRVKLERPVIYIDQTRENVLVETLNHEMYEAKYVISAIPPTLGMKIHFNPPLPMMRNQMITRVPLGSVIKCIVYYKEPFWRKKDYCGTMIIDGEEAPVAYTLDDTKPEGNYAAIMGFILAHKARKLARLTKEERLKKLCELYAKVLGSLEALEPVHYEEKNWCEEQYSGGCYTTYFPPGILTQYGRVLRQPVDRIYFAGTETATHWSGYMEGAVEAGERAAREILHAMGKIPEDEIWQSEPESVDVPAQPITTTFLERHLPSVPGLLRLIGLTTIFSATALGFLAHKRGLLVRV

[2] = target: T2, Amine oxidase [flavin-containing] A (Homo sapiens, UniProt P21397); test: Inhibition of human recombinant MAO-A expressed in baculovirus-infected BTI cells using kynuramine as substrate at 62.5 uM incubated for 30 mins by fluorescence based analysis; settings: 0.5 h
T2 sequence (P21397 whole entry): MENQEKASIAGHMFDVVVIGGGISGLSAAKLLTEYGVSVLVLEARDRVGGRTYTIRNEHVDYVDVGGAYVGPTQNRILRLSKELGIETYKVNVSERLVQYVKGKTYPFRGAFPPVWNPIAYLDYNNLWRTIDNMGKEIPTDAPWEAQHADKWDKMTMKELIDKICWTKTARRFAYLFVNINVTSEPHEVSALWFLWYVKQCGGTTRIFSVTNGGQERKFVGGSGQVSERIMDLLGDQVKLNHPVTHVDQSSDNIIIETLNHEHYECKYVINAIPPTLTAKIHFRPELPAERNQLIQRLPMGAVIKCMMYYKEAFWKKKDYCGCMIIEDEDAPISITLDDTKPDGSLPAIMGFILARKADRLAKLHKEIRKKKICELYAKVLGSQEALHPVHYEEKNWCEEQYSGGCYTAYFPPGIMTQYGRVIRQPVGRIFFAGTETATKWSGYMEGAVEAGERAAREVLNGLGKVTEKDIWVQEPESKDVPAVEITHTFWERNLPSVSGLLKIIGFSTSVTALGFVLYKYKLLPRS

Homo sapiens = organism: Homo sapiens; test: Selectivity index, ratio of IC50 for inhibition of human recombinant MAO-A expressed in baculovirus-infected BTI cells to IC50 for inhibition of human recombinant MAO-B expressed in baculovirus-infected BTI cells
[3] = target: T2, Amine oxidase [flavin-containing] A; test: Inhibition of human recombinant MAO-A expressed in baculovirus-infected BTI cells using kynuramine as substrate incubated for 30 mins by fluorescence based analysis
BV-2 [4] = test: Anti-inflammatory activity against LPS-stimulated mouse BV-2 cells assessed as inhibition of LPS-induced NO production incubated for 24 hrs in presence of LPS; assay type: functional, cell-based; settings: dose 1-9 µM
[5] = Cytotoxicity against mouse BV-2 cells assessed as cell viability at 30 uM by CCK8 assay; assay type: toxicity, cell-based; settings: BV-2 cells, read-out: Activity
[6] = target: Amyloid-beta precursor protein (Homo sapiens) (UniProt P05067); test: Inhibition of self-induced Amyloid beta (1 to 42) (unknown origin) aggregation at 25 uM incubated for 24 hrs by thioflavin T-based fluorescence analysis
Amyloid-beta precursor protein (Homo sapiens), sequence (P05067 whole entry): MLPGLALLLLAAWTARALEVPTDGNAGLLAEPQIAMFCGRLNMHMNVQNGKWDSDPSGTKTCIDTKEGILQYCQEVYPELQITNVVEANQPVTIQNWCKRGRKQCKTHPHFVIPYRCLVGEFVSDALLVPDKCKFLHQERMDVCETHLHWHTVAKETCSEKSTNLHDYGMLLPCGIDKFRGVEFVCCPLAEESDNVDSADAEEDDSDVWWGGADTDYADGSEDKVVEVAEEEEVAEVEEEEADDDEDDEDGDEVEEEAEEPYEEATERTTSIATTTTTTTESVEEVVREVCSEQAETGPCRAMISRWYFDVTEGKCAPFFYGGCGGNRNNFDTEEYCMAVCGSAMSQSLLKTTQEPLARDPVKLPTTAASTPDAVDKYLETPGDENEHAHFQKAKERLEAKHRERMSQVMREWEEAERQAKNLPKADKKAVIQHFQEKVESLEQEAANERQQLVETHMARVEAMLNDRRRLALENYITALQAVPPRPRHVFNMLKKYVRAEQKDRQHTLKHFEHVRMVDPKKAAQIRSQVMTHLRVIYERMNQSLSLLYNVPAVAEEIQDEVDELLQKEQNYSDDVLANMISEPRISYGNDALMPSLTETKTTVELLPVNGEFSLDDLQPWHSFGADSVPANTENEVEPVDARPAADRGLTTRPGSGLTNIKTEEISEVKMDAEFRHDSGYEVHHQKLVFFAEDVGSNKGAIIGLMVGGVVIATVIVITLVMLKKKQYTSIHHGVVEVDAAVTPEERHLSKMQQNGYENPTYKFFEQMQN

BV-2 [7] = test: Anti-inflammatory activity against LPS-stimulated mouse BV-2 cells assessed as inhibition of LPS-induced IL-6 production incubated for 24 hrs in presence of LPS; assay type: functional, cell-based; settings: dose 1-9 µM
PC-12 [8] = test: Neuroprotective activity against Amyloid beta(25 to 35)-induced cell injury in rat PC12 cells assessed as increase in cell viability pretreated for 2 hrs followed by incubation with Abeta(25 to 35) for 24 hrs by CCK-8 assay; assay type: functional, cell-based; settings: dose 5-20 µM, time 26.0 hrs
BV-2 [9] = test: Cytotoxicity against mouse BV-2 cells assessed as reduction in cell viability at 10 uM by CCK8 assay; assay type: toxicity, cell-based; settings: bv-2, 10 µM
PC-12 [10] = test: Cytotoxicity against rat PC-12 cells assessed as cell viability at 40 uM by CCK-8 assay; assay type: toxicity, cell-based; settings: pc-12, 40 µM
BV-2 [11] = test: Anti-inflammatory activity against LPS-stimulated mouse BV-2 cells assessed as inhibition of LPS-induced IL-1 beta production incubated for 24 hrs in presence of LPS; assay type: functional, cell-based; settings: dose 1-9 µM
[12] = Permeability of the compound at 100 ug/ml incubated for 18 hrs by PAMPA assay; assay type: ADME; settings: dose 100 µg/ml, read-out: permeability
[13] = target: Cholinesterase (Equus caballus) (UniProt P81908); test: Reversible inhibition of equine serum BuChE assessed as enzyme activity using butyrylthiocholine chloride as substrate measured after dilution to 0.1XIC50 for 240 mins by Ellman's method; assay type: cell-free; design: scale not given: the % may be the effect or the level left
Cholinesterase (Equus caballus), sequence (P81908 whole entry): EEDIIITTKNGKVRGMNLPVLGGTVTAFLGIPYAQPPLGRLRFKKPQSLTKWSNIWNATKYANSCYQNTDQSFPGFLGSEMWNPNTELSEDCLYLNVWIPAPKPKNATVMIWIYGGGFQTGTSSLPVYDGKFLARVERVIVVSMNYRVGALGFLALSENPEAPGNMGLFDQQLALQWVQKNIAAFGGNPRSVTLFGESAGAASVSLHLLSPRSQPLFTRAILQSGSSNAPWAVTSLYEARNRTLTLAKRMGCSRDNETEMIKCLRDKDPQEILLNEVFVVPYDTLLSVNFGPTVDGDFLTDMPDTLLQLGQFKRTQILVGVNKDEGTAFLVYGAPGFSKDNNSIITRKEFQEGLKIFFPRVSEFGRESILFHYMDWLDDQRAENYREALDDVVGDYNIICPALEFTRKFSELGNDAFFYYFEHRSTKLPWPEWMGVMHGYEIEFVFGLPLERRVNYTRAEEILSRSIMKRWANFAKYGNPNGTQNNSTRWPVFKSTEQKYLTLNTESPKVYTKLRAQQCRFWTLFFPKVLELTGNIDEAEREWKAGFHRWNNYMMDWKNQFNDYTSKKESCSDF

[14] = target: Acetylcholinesterase (Electrophorus electricus) (UniProt O42275); test: Reversible inhibition of electric eel AChE assessed as enzyme activity using acetylthiocholine iodide as substrate measured after dilution to 0.1XIC50 for 120 mins by Ellman's method; design: scale not given: the % may be the effect or the level left
Acetylcholinesterase (Electrophorus electricus), sequence (O42275 24-633 limits assumed): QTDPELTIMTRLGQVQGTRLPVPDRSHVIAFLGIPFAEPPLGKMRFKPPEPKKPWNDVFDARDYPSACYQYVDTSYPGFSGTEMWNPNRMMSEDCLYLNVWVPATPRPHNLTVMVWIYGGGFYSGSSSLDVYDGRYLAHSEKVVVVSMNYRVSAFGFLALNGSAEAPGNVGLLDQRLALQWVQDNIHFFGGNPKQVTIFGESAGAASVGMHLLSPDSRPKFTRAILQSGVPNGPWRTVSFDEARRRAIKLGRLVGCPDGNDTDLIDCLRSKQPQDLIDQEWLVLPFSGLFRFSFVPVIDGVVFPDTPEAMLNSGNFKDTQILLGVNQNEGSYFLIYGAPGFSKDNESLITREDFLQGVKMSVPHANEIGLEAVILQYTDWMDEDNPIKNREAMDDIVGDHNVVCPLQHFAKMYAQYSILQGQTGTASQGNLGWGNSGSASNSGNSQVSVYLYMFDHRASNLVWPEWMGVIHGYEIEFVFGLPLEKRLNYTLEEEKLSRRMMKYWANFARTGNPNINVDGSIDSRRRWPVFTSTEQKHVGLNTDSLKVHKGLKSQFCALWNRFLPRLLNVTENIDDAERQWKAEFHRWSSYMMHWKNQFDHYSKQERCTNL

PC-12 [15] = test: Neuroprotective activity against Amyloid beta(25 to 35)-induced cell injury in rat PC12 cells assessed as cell viability at 20 uM pretreated for 2 hrs followed by incubation with Abeta(25 to 35) for 24 hrs by CCK-8 assay (reference value: 41 to 58.6%); assay type: functional; settings: time 26 hrs, read-out: Activity
PC-12 [16] = test: Neuroprotective activity against Amyloid beta(25 to 35)-induced cell injury in rat PC12 cells assessed as cell viability at 5 uM pretreated for 2 hrs followed by incubation with Abeta(25 to 35) for 24 hrs by CCK-8 assay (reference value: 41 to 58.6%); assay type: functional; settings: time 26 hrs, read-out: Activity
PC-12 [17] = test: Neuroprotective activity against Amyloid beta(25 to 35)-induced cell injury in rat PC12 cells assessed as cell viability at 10 uM pretreated for 2 hrs followed by incubation with Abeta(25 to 35) for 24 hrs by CCK-8 assay (reference value: 41 to 58.6%); assay type: functional; settings: time 26 hrs, read-out: Activity
[18] = Metal chelating activity assessed as compound-Cu2+ complex formation by measuring small fiber aggregates incubated for 24 hrs by transmission electron microscopy
[19] = Metal chelating activity assessed as compound-Cu2+ complex formation by measuring inhibition of Cu2+-induced amyloid beta (1 to 42) aggregation at 25 uM by thioflavin T-based fluorescence analysis
Acetylcholinesterase = Acetylcholinesterase (Electrophorus electricus, UniProt O42275); test: Inhibition of electric eel AChE using acetylthiocholine chloride as substrate by Ellman's method
Acetylcholinesterase, sequence (O42275 whole entry): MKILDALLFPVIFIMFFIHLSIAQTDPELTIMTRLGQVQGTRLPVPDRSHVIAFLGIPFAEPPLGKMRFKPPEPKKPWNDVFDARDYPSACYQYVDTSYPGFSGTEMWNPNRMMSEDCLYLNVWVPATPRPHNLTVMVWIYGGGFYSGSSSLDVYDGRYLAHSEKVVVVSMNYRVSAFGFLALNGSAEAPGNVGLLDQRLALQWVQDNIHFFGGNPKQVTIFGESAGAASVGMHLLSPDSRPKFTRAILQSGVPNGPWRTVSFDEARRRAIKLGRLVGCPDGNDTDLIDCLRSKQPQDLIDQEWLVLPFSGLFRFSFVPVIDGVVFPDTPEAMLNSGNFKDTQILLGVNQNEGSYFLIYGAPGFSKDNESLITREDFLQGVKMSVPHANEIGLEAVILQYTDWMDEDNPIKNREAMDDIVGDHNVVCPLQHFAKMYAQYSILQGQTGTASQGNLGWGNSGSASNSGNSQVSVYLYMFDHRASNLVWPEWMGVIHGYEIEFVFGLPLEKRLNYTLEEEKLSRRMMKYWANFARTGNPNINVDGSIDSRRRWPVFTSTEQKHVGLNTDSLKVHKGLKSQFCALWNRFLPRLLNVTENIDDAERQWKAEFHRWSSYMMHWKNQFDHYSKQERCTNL

[20] = Selectivity index, ratio of IC50 for inhibition of electric eel AChE to IC50 for inhibition of equine serum BuChE
Cholinesterase = Cholinesterase (Equus caballus, UniProt P81908); test: Inhibition of equine serum BuChE using butyrylthiocholine chloride as substrate by Ellman's method; assay type: cell-free
Cholinesterase, sequence (P81908 whole entry): as the sequence (P81908 whole entry) above

BV-2 [21] = test: Anti-inflammatory activity against LPS-stimulated mouse BV-2 cells assessed as inhibition of LPS-induced IL-6 production by measuring IL-6 level at 9 uM incubated for 24 hrs in presence of LPS (reference value: 1503.2 pg/ml); assay type: functional
BV-2 [22] = test: Anti-inflammatory activity against LPS-stimulated mouse BV-2 cells assessed as inhibition of LPS-induced IL-6 production by measuring IL-6 level at 3 uM incubated for 24 hrs in presence of LPS (reference value: 1503.2 pg/ml); assay type: functional
BV-2 [23] = test: Anti-inflammatory activity against LPS-stimulated mouse BV-2 cells assessed as inhibition of LPS-induced IL-1 beta production by measuring IL-beta level at 9 uM incubated for 24 hrs in presence of LPS (reference value: 221.3 pg/ml); assay type: functional
BV-2 [24] = test: Anti-inflammatory activity against LPS-stimulated mouse BV-2 cells assessed as inhibition of LPS-induced IL-1 beta production by measuring IL-beta level at 1 uM incubated for 24 hrs in presence of LPS (reference value: 221.3 pg/ml); assay type: functional
BV-2 [25] = test: Anti-inflammatory activity against LPS-stimulated mouse BV-2 cells assessed as inhibition of LPS-induced IL-6 production by measuring IL-6 level at 1 uM incubated for 24 hrs in presence of LPS (reference value: 1503.2 pg/ml); assay type: functional
BV-2 [26] = test: Anti-inflammatory activity against LPS-stimulated mouse BV-2 cells assessed as inhibition of LPS-induced IL-1 beta production by measuring IL-beta level at 3 uM incubated for 24 hrs in presence of LPS (reference value: 221.3 pg/ml); assay type: functional

O=C(/C=C/c1ccc2ccccc2c1Br)c1ccccc1O
IC50 [1]: 2.8 µM | inhibition at 62.5 µM [2]: < 15%

COc1ccc(Br)cc1/C=C/C(=O)c1ccccc1O
IC50 [1]: 27.5 µM | inhibition at 62.5 µM [2]: < 15%

O=C(/C=C/c1ccc(Cl)cc1)c1ccccc1O
Ratio IC50 (Homo sapiens): 7.7 | IC50 [1]: 10.3 µM | IC50 [3]: 78.8 µM

COc1ccc(/C=C/C(=O)c2ccccc2O)cc1
Ratio IC50 (Homo sapiens): 40.9 | Activity (BV-2 [4]): Dose-Dependent Effect | viability at 30 µM [5]: 78.9% | inhibition [6]: 61.1% | Activity (BV-2 [7]): Dose-Dependent Effect | Activity (PC-12 [8]): Dose-Dependent Effect | Activity (BV-2 [9]): Non-Toxic | IC50 [1]: 1.3 µM | Activity (PC-12 [10]): Non-Toxic | IC50 [3]: 53.2 µM | Activity (BV-2 [11]): Dose-Dependent Effect

COc1ccccc1/C=C/C(=O)c1ccccc1O
IC50 [1]: 5.9 µM | inhibition at 62.5 µM [2]: < 15%

CCn1cc(C(=O)O)c(=O)c2cc(F)c(N3CCNCC3)cc21 [NORFLOXACIN]
Papp at 18 h, 100 ug/ml [12]: 0.21 ×10⁻⁶ cm/s

CCN(C)C(=O)Oc1cccc([C@H](C)N(C)C)c1
Activity [13]: 81.2% | Activity [14]: 94.7%

COc1cccc(/C=C/C(=O)c2ccccc2O)c1
Ratio IC50 (Homo sapiens): 10.5 | IC50 [1]: 3.4 µM | IC50 [3]: 35.7 µM

O=C(/C=C/c1ccccc1F)c1ccccc1O
IC50 [1]: 12.6 µM | inhibition at 62.5 µM [2]: < 15%

O=C(/C=C/c1c(Br)cccc1Br)c1ccccc1O
IC50 [1]: 60.3 µM | inhibition at 62.5 µM [2]: < 15%

O=C(/C=C/c1cccc(O)c1)c1ccccc1O
Ratio IC50 (Homo sapiens): 29.9 | IC50 [1]: 1.7 µM | IC50 [3]: 50.9 µM

COc1cc(/C=C/C(=O)CC(=O)/C=C/c2ccc(O)c(OC)c2)ccc1O [CURCUMIN]
viability at 20 µM (PC-12 [15]): 85.5% | viability at 5 µM (PC-12 [16]): 62.5% | Activity (PC-12 [10]): Non-Toxic | viability at 10 µM (PC-12 [17]): 76.3% | Activity [18]: Active | inhibition [19]: 53.5%

O=C(/C=C/c1c(F)cccc1Br)c1ccccc1O
IC50 [1]: 4.7 µM | inhibition at 62.5 µM [2]: < 15%

CCN(CC)C(=O)Oc1ccccc1C(=O)/C=C/c1ccc(F)cc1
Ratio IC50 (Homo sapiens): 24.9 | Activity (BV-2 [4]): Dose-Dependent Effect | Activity (BV-2 [7]): Dose-Dependent Effect | Activity (PC-12 [8]): Dose-Dependent Effect | Activity (BV-2 [9]): Non-Toxic | IC50 [1]: 2.1 µM | Activity (PC-12 [10]): Non-Toxic | IC50 (Acetylcholinesterase): 11.2 µM | Ratio IC50 [20]: 0.59 | IC50 (Cholinesterase): 18.9 µM | IC50 [3]: 52.3 µM | Activity (BV-2 [11]): Dose-Dependent Effect

O=C(/C=C/c1ccc(O)cc1)c1ccccc1O
Activity (BV-2 [21]): 337.5 pg/mL | Ratio IC50 (Homo sapiens): 82.6 | Activity (BV-2 [4]): Dose-Dependent Effect | viability at 20 µM (PC-12 [15]): 94.6% | viability at 5 µM (PC-12 [16]): 88.9% | Activity (BV-2 [22]): 489.3 pg/mL | viability at 30 µM [5]: 71.5% | Activity (BV-2 [23]): 50.9 pg/mL | inhibition [6]: 80.7% | Activity (BV-2 [24]): 147.6 pg/mL | Activity (BV-2 [9]): Non-Toxic | IC50 [1]: 0.8 µM | Activity (PC-12 [10]): Non-Toxic | Activity (BV-2 [25]): 763.2 pg/mL | viability at 10 µM (PC-12 [17]): 91% | Activity (BV-2 [26]): 77.6 pg/mL | IC50 [3]: 66.1 µM

CN(C)C(=O)Oc1ccccc1C(=O)/C=C/c1ccc(F)cc1
Ratio IC50 (Homo sapiens): 11.7 | Activity (BV-2 [4]): Dose-Dependent Effect | Activity (BV-2 [7]): Dose-Dependent Effect | Activity (PC-12 [8]): Dose-Dependent Effect | Activity (BV-2 [9]): Non-Toxic | IC50 [1]: 2.7 µM | Activity (PC-12 [10]): Non-Toxic | IC50 (Acetylcholinesterase): 8.7 µM | Ratio IC50 [20]: 1.4 | IC50 (Cholinesterase): 6.3 µM | IC50 [3]: 31.5 µM | Activity (BV-2 [11]): Dose-Dependent Effect

O=C(/C=C/c1cc2ccccc2c2ccccc12)c1ccccc1O
IC50 [1]: 76.8 µM | inhibition at 62.5 µM [2]: < 15%

COc1ccc2cc(/C=C/C(=O)c3ccccc3O)ccc2c1
IC50 [1]: 78.4 µM | inhibition at 62.5 µM [2]: < 15%

O=C(/C=C/c1ccc(Br)cc1OC(F)(F)F)c1ccccc1O
Ratio IC50 (Homo sapiens): 22.9 | IC50 [1]: 2.6 µM | IC50 [3]: 59.3 µM

— ChEMBL document CHEMBL5346920, “Development of the "hidden" multi-target-directed ligands by AChE/BuChE for the treatment of Alzheimer's disease” (Eur J Med Chem, 2023)
